{"source": "patent US7297353B2", "about": "“Use of anemonin for treating aseptic inflammations” (priority 2000, dated 2007)", "key": {"IL-10": {"test_system": "IL-10", "assay": "Cytokine production from splenocytes, Sac stimulation, IL-10 (ELISA)", "assay_type": "cell-based, murine", "details": "24 h", "procedure": "(§1) For splenocyte cytokine production assay, 5×10^6 cells per well were inoculated into a 24-well tissue culture plate with ConA (5 mg/L) or Sac (1:10000) stimulation. Different concentrations of Anemonin were added in a final volume of 2 ml. Cells were incubated at 37° C., 5% CO2 for 24 h and supernatants were harvested, IFN-γ, IL-10, IL12 (p40) and IL-2 in supernatants were measured by the sandwich enzyme-linked immunosorbent assay (ELISA) as specified by the manufacturer (BD Bioscience pharmingen, US). Concentrations of the cytokine productions were calculated based on standard curves obtained from serial dilutions of murine cytokines (r IFN-γ, rIL-10, rIL12, rIL-2). As shown in Tables C-3 and C-4, high-dose Anemonin (1-100 μg/ml) inhibited all kinds of cytokine release induced by ConA or Sac."}, "[1]": {"test_system": "lymphocytes from the whole spleen of ICR mice", "assay": "Effect on survival rate of lymphocytes (MTT)", "assay_type": "cell-based", "details": "for MTT Average of OD values: 48-hour culture", "procedure": "5.1.1. Mice were sacrificed by removing spondyle, spleen was cut off and then ground to obtain single cell suspension. After erythrocytes were got rid of the remained cells were diluted to […] with RPMI-1640 culture solution containing 10% fetal bovine serum. In addition, all these performances must be sterile.\n5.1.2. 200 μl solution in total volume (including 100 μl the cell suspension, 50 μl sample and 50 μl culture solution containing 10% fetal bovine serum) was dispensed on 96-well plate. 100 μl the cell suspension and 100 μl culture solution (200 μl in total volume) were added as negative control.\n5.1.3. The cell was cultured at 37° C. and under 5% CO2 in incubator for 48 hours, and added MTT to the plate at […] 6 to 7 hours before the end of culture.\n5.1.4. 100 μl of supernatant was sucked out when the culture was ended, and then lytic solution was added at 100 μl/well. The plates were kept in incubator for 6 to 7 hours. The survival rate was calculated according to the OD value (at 570 nm) measured by microplate reader.\nEffect of different concentrations of Anemonin on survival rate of lymphocytes were determined, said lymphocytes were from the whole spleen of ICR mice after 48-hour culture."}, "[2]": {"test_system": "murine spleens cells stimulated with ConA", "assay": "T-cell proliferation, spleen cells stimulated with ConA ([3H]-thymidine uptake)", "assay_type": "cell-based, ICR mice", "details": "for [^3H]-TDRincorparation(CPM × 10^−3): ConA 5 μg/ml, 48 hrs", "procedure": "Fresh spleen cells were obtained from ICR mice (male, 7-9 weeks old), 5×10^5 of spleen cells were cultured in 96-well flat plates with […] of RPMI 1640 media containing 10% FBS, 100 U/ml penicillin and 100 μg/ml streptomyin in a humidified, 37° C., 5% CO2 incubator for 48 hrs. The cultures were either unstimulated, or were stimulated with 5 μg/ml of ConA or 10 μg/ml of LPS to induce T cells or B cells proliferative responses respectively. The compounds were added in cultures with indicated concentrations to test their bioactivities. Profileration was assessed in terms of uptake of [^3H]-thymidine during 6-12 hours pulsing with 20 kBq [^3H]-thymidine/well, then the cells were harvested by a Basic 96 harvester, and counted in a 1540 MicroBeta Trilux (PerkinElmer Life Sciences)."}, "[3]": {"test_system": "staphylococcus, streptococcus, Bacillus diphtheriae, Mycobacterium tuberculosis, and E. coli", "details": "cited from earlier work"}, "IFN-γ": {"test_system": "IFN-γ", "assay": "Cytokine production from splenocytes, ConA stimulation, IFN-γ (ELISA)", "assay_type": "cell-based, murine", "details": "24 h", "procedure": "as §1"}, "[4]": {"test_system": "carrageenan-induced paw edema", "assay": "Acute hind paw edema of rats induced by carrageenan", "assay_type": "in vivo", "procedure": "The animals were injected subcutaneously with carrageenan (10 μl of 1% solution in saline) into the right paw. Anti-inflammatory properties of external anemonin were studied by applying with various liniment solution of anemonin (0.125, 0.5, 2 mg/ml, 0.5 ml) for 2 h immediately after administration of carrageenan. The rats of control group were treated with the same volume of solvent (25% ethanol). The paw volumes of rats were measured at 0, 2 h, 3 h, 4 h, 5 h, 6 h after injection of carrageenan. The paw edema was represented by subtracting the volume of the untreated same paw from that of the treated paw."}, "[5]": {"assay": "Stability test for prolonged storage", "assay_type": "physicochemical", "details": "anemonin in the present medication", "excerpt": "According to preferred embodiments of the present invention, when the extracted anemonin or anemonin extract liquor is mixed with one or more Chinese herbs or chemical pharmaceuticals, the stability of the anemonin is not affected by the combined Chinese herbs, chemical components contained therein or the pharmaceuticals, and the amenonin can still effectively treat various aseptic inflammations."}}, "note": "Entries after “also recorded” stand apart in the source; their conditions may differ.", "data": [{"smiles": "O=C1C=CC2(CCC23C=CC(=O)O3)O1", "note": "(stereo not drawn) [Anemonin, anemonin]", "values": [{"measurement": "IL-10", "setting": "IL-10; 0.001 μg/ml", "value": "1242 ± 46", "unit": "pg/mL"}, {"measurement": "IL-10", "setting": "IL-10; 0.01 μg/ml", "value": "1235 ± 19", "unit": "pg/mL"}, {"measurement": "IL-10", "setting": "IL-10; 0.1 μg/ml", "value": "1229 ± 9", "unit": "pg/mL"}, {"measurement": "IL-10", "setting": "IL-10; 1 μg/ml", "value": "749 ± 64", "unit": "pg/mL"}, {"measurement": "IL-10", "setting": "IL-10; 10 μg/ml", "value": "249 ± 0", "unit": "pg/mL"}, {"measurement": "IL-10", "setting": "IL-10; 100 μg/ml", "value": "274 ± 18", "unit": "pg/mL"}, {"measurement": "MTT Average of OD values", "setting": "[1]; 0.001 μg/ml, Table B-2", "value": 0.087}, {"measurement": "Decrease of survival rate of lymphocytes Yes/No", "setting": "[1]; 0.001 μg/ml, Table B-2", "value": "Yes"}, {"measurement": "MTT Average of OD values", "setting": "[1]; 0.01 μg/ml, Table B-2", "value": 0.068}, {"measurement": "Decrease of survival rate of lymphocytes Yes/No", "setting": "[1]; 0.01 μg/ml, Table B-2", "value": "Yes"}, {"measurement": "MTT Average of OD values", "setting": "[1]; 0.1 μg/ml, Table B-2", "value": 0.061}, {"measurement": "Decrease of survival rate of lymphocytes Yes/No", "setting": "[1]; 0.1 μg/ml, Table B-2", "value": "Yes"}, {"measurement": "MTT Average of OD values", "setting": "[1]; 1 μg/ml, Table B-1", "value": 0.052}, {"measurement": "MTT Average of OD values", "setting": "[1]; 1 μg/ml, Table B-2", "value": 0.002}, {"measurement": "Decrease of survival rate of lymphocytes Yes/No", "setting": "[1]; 1 μg/ml, Table B-1", "value": "Yes"}, {"measurement": "Decrease of survival rate of lymphocytes Yes/No", "setting": "[1]; 1 μg/ml, Table B-2", "value": "Yes"}, {"measurement": "MTT Average of OD values", "setting": "[1]; 10 μg/ml, Table B-1", "value": 0.002}, {"measurement": "MTT Average of OD values", "setting": "[1]; 10 μg/ml, Table B-2", "value": 0.008}, {"measurement": "Decrease of survival rate of lymphocytes Yes/No", "setting": "[1]; 10 μg/ml, Table B-1", "value": "Yes"}, {"measurement": "Decrease of survival rate of lymphocytes Yes/No", "setting": "[1]; 10 μg/ml, Table B-2", "value": "Yes"}, {"measurement": "MTT Average of OD values", "setting": "[1]; 100 μg/ml, Table B-1", "value": 0.163}, {"measurement": "MTT Average of OD values", "setting": "[1]; 100 μg/ml, Table B-2", "value": 0.145}, {"measurement": "inhibition in survival rate of the lymphocytes", "setting": "[1]; final concentration range from 0.001 μg/ml to 10 μg/ml", "value": "obvious inhibition; also recorded: obvious effect"}, {"measurement": "[^3H]-TDRincorparation(CPM × 10^−3)", "setting": "[2]; 0.001 μg/ml", "value": "30.1 ± 1.31", "unit": "CPM × 10^−3"}, {"measurement": "[^3H]-TDRincorparation(CPM × 10^−3)", "setting": "[2]; 0.01 μg/ml", "value": "33.2 ± 2.56", "unit": "CPM × 10^−3"}, {"measurement": "[^3H]-TDRincorparation(CPM × 10^−3)", "setting": "[2]; 0.1 μg/ml", "value": "30.9 ± 0.78", "unit": "CPM × 10^−3"}, {"measurement": "[^3H]-TDRincorparation(CPM × 10^−3)", "setting": "[2]; 1 μg/ml", "value": "21.7 ± 0.53", "unit": "CPM × 10^−3"}, {"measurement": "[^3H]-TDRincorparation(CPM × 10^−3)", "setting": "[2]; 10 μg/ml", "value": "0.03 ± 0.01", "unit": "CPM × 10^−3"}, {"measurement": "[^3H]-TDRincorparation(CPM × 10^−3)", "setting": "[2]; 100 μg/ml", "value": "0.02 ± 0.01", "unit": "CPM × 10^−3"}, {"measurement": "T-cell proliferation", "setting": "[2]; 1-100 μg/ml", "value": "significantly inhibited"}, {"measurement": "inhibitory against bacteria", "setting": "[3]", "value": "inhibitory"}, {"measurement": "IFN-γ", "setting": "IFN-γ; 0.001 μg/ml", "value": "2405 ± 171", "unit": "pg/mL"}, {"measurement": "IFN-γ", "setting": "IFN-γ; 0.01 μg/ml", "value": "2651 ± 120", "unit": "pg/mL"}, {"measurement": "IFN-γ", "setting": "IFN-γ; 0.1 μg/ml", "value": "2298 ± 4", "unit": "pg/mL"}, {"measurement": "IFN-γ", "setting": "IFN-γ; 1 μg/ml", "value": "508 ± 16", "unit": "pg/mL"}, {"measurement": "IFN-γ", "setting": "IFN-γ; 10 μg/ml", "value": "94 ± 0", "unit": "pg/mL"}, {"measurement": "IFN-γ", "setting": "IFN-γ; 100 μg/ml", "value": "89 ± 3", "unit": "pg/mL"}, {"measurement": "Paw edema", "setting": "[4]; 0.125 mg/ml liniment, 2 h", "value": "0.24 ± 0.06", "unit": "mL"}, {"measurement": "Paw edema", "setting": "[4]; 0.125 mg/ml liniment, 3 h", "value": "0.20 ± 0.09", "unit": "mL"}, {"measurement": "Paw edema", "setting": "[4]; 0.125 mg/ml liniment, 4 h", "value": "0.33 ± 0.08", "unit": "mL"}, {"measurement": "Paw edema", "setting": "[4]; 0.125 mg/ml liniment, 5 h", "value": "0.36 ± 0.11", "unit": "mL"}, {"measurement": "Paw edema", "setting": "[4]; 0.125 mg/ml liniment, 6 h", "value": "0.39 ± 0.08", "unit": "mL"}, {"measurement": "Paw edema", "setting": "[4]; 0.5 mg/ml liniment, 2 h", "value": "0.24 ± 0.13", "unit": "mL"}, {"measurement": "Paw edema", "setting": "[4]; 0.5 mg/ml liniment, 3 h", "value": "0.21 ± 0.08", "unit": "mL"}, {"measurement": "Paw edema", "setting": "[4]; 0.5 mg/ml liniment, 4 h", "value": "0.25 ± 0.07", "unit": "mL"}, {"measurement": "Paw edema", "setting": "[4]; 0.5 mg/ml liniment, 5 h", "value": "0.35 ± 0.10", "unit": "mL"}, {"measurement": "Paw edema", "setting": "[4]; 0.5 mg/ml liniment, 6 h", "value": "0.40 ± 0.08", "unit": "mL"}, {"measurement": "Paw edema", "setting": "[4]; 2 mg/ml liniment, 0.5 ml for 2 h, 2 h after carrageenan", "value": "0.25 ± 0.08", "unit": "mL"}, {"measurement": "Paw edema", "setting": "[4]; 2 mg/ml liniment, 3 h", "value": "0.16 ± 0.08", "unit": "mL"}, {"measurement": "Paw edema", "setting": "[4]; 2 mg/ml liniment, 4 h", "value": "0.25 ± 0.07", "unit": "mL"}, {"measurement": "Paw edema", "setting": "[4]; 2 mg/ml liniment, 5 h", "value": "0.30 ± 0.06", "unit": "mL"}, {"measurement": "Paw edema", "setting": "[4]; 2 mg/ml liniment, 6 h", "value": "0.31 ± 0.10", "unit": "mL"}, {"measurement": "paw edema development", "setting": "[4]; liniment 0.125, 0.5, 2 mg/ml, dose-dependent manner", "value": "significantly reduced"}, {"measurement": "stability on prolonged storage", "setting": "[5]", "value": "at least 5 years"}]}]}
